A short description of assay [1]: HIV-1 Vif–A3G interaction blockers – biochemical, TR-FRET, GST-Vif 1-94, biotin-A3G peptide, dose response retest, primary screen (AID 1117319).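 Note: TR-FRET signal of purified GST-Vif binding a biotinylated A3G peptide; inhibitors lower the FRET signal by blocking Vif and A3G binding.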 The assay is classed as functional.
Another assay has as its target T1, Aminopeptidase N (Plasmodium falciparum FcB1/Columbia, UniProt O96935).
T1 sequence (O96935 whole entry): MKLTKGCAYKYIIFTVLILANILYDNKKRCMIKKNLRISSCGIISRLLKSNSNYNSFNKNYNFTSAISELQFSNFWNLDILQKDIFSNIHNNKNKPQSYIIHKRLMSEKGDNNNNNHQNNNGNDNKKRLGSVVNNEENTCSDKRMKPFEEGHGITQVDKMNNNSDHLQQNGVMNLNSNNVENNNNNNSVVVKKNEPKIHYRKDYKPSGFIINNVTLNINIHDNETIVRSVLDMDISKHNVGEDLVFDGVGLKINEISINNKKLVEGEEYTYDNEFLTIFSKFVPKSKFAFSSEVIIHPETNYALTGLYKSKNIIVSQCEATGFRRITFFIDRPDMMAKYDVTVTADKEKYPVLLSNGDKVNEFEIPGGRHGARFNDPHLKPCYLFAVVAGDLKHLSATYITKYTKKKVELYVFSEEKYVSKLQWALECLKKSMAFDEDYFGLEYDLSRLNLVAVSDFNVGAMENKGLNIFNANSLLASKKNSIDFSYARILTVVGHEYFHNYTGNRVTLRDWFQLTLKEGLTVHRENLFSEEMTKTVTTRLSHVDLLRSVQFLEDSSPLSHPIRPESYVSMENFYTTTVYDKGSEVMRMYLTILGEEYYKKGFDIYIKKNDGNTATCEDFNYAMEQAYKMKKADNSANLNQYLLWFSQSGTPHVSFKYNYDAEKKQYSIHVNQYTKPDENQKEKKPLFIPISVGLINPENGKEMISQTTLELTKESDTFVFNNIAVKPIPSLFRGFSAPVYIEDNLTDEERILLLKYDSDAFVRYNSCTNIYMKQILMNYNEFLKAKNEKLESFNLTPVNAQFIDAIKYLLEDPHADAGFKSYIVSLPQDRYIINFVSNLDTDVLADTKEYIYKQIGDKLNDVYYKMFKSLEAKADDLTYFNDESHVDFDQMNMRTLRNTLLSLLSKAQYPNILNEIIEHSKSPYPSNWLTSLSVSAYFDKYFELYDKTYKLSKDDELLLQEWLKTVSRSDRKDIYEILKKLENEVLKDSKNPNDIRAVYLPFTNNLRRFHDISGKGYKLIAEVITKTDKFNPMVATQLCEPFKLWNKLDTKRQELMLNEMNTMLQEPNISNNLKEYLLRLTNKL
In words: malaria alanyl aminopeptidase activity blockers – biochemical, fluorogenic H-Leu-NHMec substrate, 1536-well (AID 1445). Further details: species or system Plasmodium falciparum 3D7, 3D7.

The target of assay [2] is FAD-linked sulfhydryl oxidase ALR (Homo sapiens, UniProt P55789). In words: ALR-catalysed DTT oxidation blockers – biochemical, H2O2 detection, luminescence, cherry-pick, dose response (AID 493248).
Assay [3] has as its target T2, RNA-editing ligase 1, mitochondrial (Trypanosoma brucei brucei, UniProt P86926).
T2 sequence (P86926 whole entry): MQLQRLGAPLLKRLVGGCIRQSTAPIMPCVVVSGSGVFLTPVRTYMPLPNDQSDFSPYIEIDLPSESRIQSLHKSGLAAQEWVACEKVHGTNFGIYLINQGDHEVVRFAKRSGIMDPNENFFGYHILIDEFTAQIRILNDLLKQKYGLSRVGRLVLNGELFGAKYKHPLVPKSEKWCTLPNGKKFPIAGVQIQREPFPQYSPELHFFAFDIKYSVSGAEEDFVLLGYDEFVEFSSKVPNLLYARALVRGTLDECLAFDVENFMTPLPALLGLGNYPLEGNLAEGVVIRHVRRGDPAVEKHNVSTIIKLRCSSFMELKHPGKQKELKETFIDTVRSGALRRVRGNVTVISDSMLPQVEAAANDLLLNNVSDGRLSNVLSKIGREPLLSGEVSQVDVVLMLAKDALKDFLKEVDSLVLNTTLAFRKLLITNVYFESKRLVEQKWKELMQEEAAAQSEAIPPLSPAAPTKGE
In words: inhibition of trypanosome RNA editing ligase – biochemical, fluorescence, Trypanosoma brucei, dose response (AID 1117295). Format: functional.

Assay [4] is described as follows: viability of uninfected HEp-2 cells – cell-based, HTS, cytotoxicity control for RSV inhibitor project, dose response (AID 2410). The assay is classed as functional. Conditions: human respiratory syncytial virus.
A short description of assay [5]: cells.
The subject of assay [6] is BJ. In words: BJ-TERT fibroblast viability loss – cell-based, RAS-independent, luminescence, dose response (AID 1933). Format: functional. Conditions: Homo sapiens.
The test system of assay [7] is BJ. Description: cells. Format: functional, cell-based. Particulars: Homo sapiens.
A short description of assay [8]: Trypanosoma cruzi growth suppression in host cells – NIH3T3 host cells, beta-gal luminescence, confirmation (AID 2044).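 Note: intracellular parasites grown in NIH/3T3 mouse fibroblasts as host cells; luminescent beta-galactosidase reporter signal from transgenic T. cruzi replicating inside host cells; inhibitors lower the luminescence signal.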 The assay is classed as functional, cell-based.
Assay [9] is described as follows: NIH3T3 cell viability loss – ATP luminescence, mouse fibroblasts, counter-screen, dose response (AID 2010).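 Note: cells exposed to compound for about 90 hours before reading.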 The assay is classed as functional, cell-based.
The test system of assay [10] is BJ. In words: BJ-TERT-LT-ST fibroblast viability loss – cell-based, RAS-independent, luminescence, dose response (AID 1935).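 Note: BJ fibroblasts immortalized with TERT plus LT and ST oncogenes.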 Format: functional. Particulars: Homo sapiens.
Assay [11] in a line: DRD fibroblast viability loss – cell-based, non-viral oncogenic, luminescence, dose response (AID 1934). The assay is classed as functional. Conditions: Homo sapiens.
The subject of a further assay is INS1. Description: INS-1E survival protection against cytokine death – cell-based, luminescence, retest, dose response (AID 449756).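 Note: cell death triggered by IL-1 beta plus TNF-alpha plus IFN-gamma mixture; protective hits raise ATP signal compared with cytokine alone wells.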 Particulars: Rattus norvegicus. The assay is classed as functional.
The target in another assay is T3, Galanin receptor type 3 (Homo sapiens, UniProt O60755).
T3 sequence (O60755 whole entry): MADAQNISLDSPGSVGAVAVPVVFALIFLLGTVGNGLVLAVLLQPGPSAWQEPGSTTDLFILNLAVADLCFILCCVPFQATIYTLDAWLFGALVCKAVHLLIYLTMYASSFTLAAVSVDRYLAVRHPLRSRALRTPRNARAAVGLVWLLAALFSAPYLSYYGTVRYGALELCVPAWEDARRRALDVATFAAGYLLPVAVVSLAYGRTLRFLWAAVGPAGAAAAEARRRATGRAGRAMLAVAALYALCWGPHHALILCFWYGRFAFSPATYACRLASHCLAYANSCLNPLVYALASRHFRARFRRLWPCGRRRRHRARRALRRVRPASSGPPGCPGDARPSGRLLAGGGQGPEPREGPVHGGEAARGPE
Description: Fluorescence-based cell-based primary high throughput dose response assay to identify antagonists of the Galanin Receptor 3 (GalR3). The assay is classed as functional.

Assay [12] in a line: cells. Format: functional, cell-based. Particulars: HEK-CNG.
Another assay has as its target Paired box protein Pax-8 (Homo sapiens, UniProt Q06710). In words: PAX8 transcriptional activity inhibition in RMG-I – RMG-I cells, luciferase, cherry-pick, dose response (AID 687027).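 Note: luciferase reporter driven by Pax8 target thyroperoxidase promoter measured by SteadyGlo luminescence.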 The assay is classed as functional, cell-based.
For assay [13], the target named is T4, COUP transcription factor 2 (Homo sapiens, UniProt P24468).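 Note: HEK293 cells transiently cotransfected with COUP-TFII expression vector and reporter; luciferase reporter luminescence driven by COUP-TFII from the pX2-168 reporter plasmid.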
T4 sequence (P24468 whole entry): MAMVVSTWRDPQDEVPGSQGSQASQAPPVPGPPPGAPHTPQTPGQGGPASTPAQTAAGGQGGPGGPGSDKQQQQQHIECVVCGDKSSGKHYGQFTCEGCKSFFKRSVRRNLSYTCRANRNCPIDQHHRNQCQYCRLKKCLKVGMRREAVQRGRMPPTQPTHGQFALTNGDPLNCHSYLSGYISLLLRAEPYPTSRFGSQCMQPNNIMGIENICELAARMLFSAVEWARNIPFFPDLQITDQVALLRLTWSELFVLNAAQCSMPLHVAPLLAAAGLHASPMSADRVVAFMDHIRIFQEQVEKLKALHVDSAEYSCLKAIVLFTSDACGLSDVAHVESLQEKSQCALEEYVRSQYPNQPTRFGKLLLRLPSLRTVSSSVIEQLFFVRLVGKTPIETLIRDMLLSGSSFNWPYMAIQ
Description: Luminescence-based cell-based high throughput dose response assay to identify inhibitors of COUP-TFII (NR2F2). Format: functional.

A short description of assay [14]: HEK-293T viability loss after treatment – luminescence, T-cell screen hits, cytotoxicity control for TCR NF-kB inhibitor project, dose response (AID 489026).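 Note: cells exposed to compound about 14 hours before the viability readout.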 Format: functional, cell-based.
A short description of assay [15]: reduction of Shn3 3'UTR-driven luciferase in osteoblasts – cell-based, Clone20 osteoblasts, firefly luciferase, cherry-picked, dose response (AID 624132).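 Note: firefly luciferase luminescence from reporter carrying the Shn3 3'UTR in osteoblasts.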 The assay is classed as functional.
Assay [16] is described as follows: loss of viability in HepG2 cells – cell-based, CellTiter-Glo, cherry-picked, cytotoxicity control for Shn3 inhibitor project, dose response (AID 624134). The assay is classed as functional. In general terms: Cellular ATP, detected with luciferase, serves as a proxy for viable cell number.
Assay [17] can be described thus: non-specific 3'UTR reporter inhibition in Clone20-Shn3RL – cell-based, Renilla luciferase, cherry-picked, counter-screen for Shn3 inhibitor project, dose response (AID 624133). Format: functional. Background: The purpose of a counterscreen is to sort out artefacts and off-target activity.

The source made the active and inactive calls.

Sequence of FAD-linked sulfhydryl oxidase ALR (P55789 whole entry): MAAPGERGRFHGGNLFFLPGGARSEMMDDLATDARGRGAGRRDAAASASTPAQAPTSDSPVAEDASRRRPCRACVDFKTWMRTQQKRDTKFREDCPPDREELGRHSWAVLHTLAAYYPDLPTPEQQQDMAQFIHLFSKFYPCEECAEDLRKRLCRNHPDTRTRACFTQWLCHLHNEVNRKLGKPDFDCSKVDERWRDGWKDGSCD
Sequence of Paired box protein Pax-8 (Q06710 whole entry): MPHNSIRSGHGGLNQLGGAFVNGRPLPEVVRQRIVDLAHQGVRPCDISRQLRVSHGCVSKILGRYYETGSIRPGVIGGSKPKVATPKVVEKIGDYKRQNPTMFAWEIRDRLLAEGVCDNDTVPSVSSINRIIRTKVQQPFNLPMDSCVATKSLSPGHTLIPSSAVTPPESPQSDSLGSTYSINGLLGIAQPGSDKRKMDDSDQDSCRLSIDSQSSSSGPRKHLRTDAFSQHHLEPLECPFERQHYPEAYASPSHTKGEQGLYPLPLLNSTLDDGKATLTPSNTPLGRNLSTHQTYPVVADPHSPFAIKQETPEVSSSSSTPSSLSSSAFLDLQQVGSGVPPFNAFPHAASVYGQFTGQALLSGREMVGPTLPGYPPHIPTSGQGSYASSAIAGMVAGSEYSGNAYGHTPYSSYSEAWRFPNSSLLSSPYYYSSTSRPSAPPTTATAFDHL

As usually defined, the IC50 is the concentration needed to halve the response being measured. Regarding `Cc1cc(C)nc(N2CCC(C(=O)O)CC2)n1`, in assay [1], the IC50 is > 100 µM (active).

The term AC50 denotes the concentration giving half of the maximal activity seen. On to `Nc1ccc(-c2nc3ccc(N)cc3[nH]2)cc1`, for which the IC50 at Aminopeptidase N is 49.9 µM (active); in assay [3], 46.1 µM (inactive). Also, the AC50 in assay [2] was 2.55 µM (active).

What is called CC50 is the concentration that lowers cell viability or growth by half. As to `CC(NCC(O)COc1ccc2ccccc2c1)c1ccccc1` (stereo unspecified), in [4], the CC50 is 24.1 µM (active). Also, the IC50 was > 96.6 µM (inactive) in assay [3] and > 25 µM (active) in the assay “cells [5]”.

For the compound `COC(=O)C1=C(C)N(Cc2ccccc2C(F)(F)F)C(NCc2cccc(C(F)(F)F)c2)=NC1c1ccc(C(F)(F)F)cc1` (stereo unspecified), the IC50 in assay [3] was > 96.6 µM (inactive).

The EC50 is the concentration at which the effect is half-maximal. Turning to `O=C(NC(Nc1nc2ccc([N+](=O)[O-])cc2s1)(C(F)(F)F)C(F)(F)F)c1cccnc1`, the EC50 in the assay on BJ [6] was 8.85 µM (inconclusive); in the assay on BJ [7] it was 4.98 µM (active); in assay [8] it was 1.38 µM (active); in assay [9] it was < 6 µM (inconclusive); in the assay on BJ [10] it was 11.4 µM (active); in [11], 10.4 µM (active). Further, the EC50 in “cells [12]” was > 29.9 µM (inactive). The AC50 is 2.6 µM (active) in the assay on INS1 and 1.86 µM (active) at Paired box protein Pax-8. For the same compound, the values for the IC50 (at Galanin receptor type 3; in [13]) were > 1.11 µM (active) and 8.8 µM (active), respectively.

For `Cc1oc(-c2ccc(Cl)cc2)nc1C[S+]([O-])CC(=O)NCCCN1CCN(Cc2ccccc2)CC1` (stereo unspecified), the IC50 was > 80 µM (inactive) in assay [14], 2.03 µM (active) at Galanin receptor type 3 and 4.34 µM (active) in assay [13]. Besides, the AC50 in assay [15] is 2.52 µM (active); in assay [16], 1.69 µM (active); in [17], 4.29 µM (active). The EC50 in the assay “cells [12]” was > 29.9 µM (inactive).

The values are drawn from ChEMBL document CHEMBL1201862, “PubChem BioAssay data set” (2004).
